Source: ChEMBL document CHEMBL1128907, “Platelet glycoprotein IIbIIIa receptor (GPIIbIIIa) antagonists derived from amidinoindoles” (Bioorg Med Chem Lett, 1996)
Square brackets hold non-standard residues; d marks the D form. Peptide text beside a SMILES is read from it. Pen = CC(C)(S)[C@H](N)C(=O)O; Mpa = O=C(O)CCS

Assays:
[1] = target: Integrin alpha-IIb/beta-3 (Homo sapiens, UniProt P05106+P08514); experiment: Inhibition of platelet glycoprotein alpha IIb beta-3 integrin in ELISA
[2] = species: Homo sapiens; experiment: Functional inhibition of the GPIIb-IIIa receptor was reflected as its ability to antagonize ADP induced platelet aggregation in human platelet-rich plasma; assay type: organism-based

Sequence of Integrin alpha-IIb/beta-3 (P05106 27-788 limits assumed): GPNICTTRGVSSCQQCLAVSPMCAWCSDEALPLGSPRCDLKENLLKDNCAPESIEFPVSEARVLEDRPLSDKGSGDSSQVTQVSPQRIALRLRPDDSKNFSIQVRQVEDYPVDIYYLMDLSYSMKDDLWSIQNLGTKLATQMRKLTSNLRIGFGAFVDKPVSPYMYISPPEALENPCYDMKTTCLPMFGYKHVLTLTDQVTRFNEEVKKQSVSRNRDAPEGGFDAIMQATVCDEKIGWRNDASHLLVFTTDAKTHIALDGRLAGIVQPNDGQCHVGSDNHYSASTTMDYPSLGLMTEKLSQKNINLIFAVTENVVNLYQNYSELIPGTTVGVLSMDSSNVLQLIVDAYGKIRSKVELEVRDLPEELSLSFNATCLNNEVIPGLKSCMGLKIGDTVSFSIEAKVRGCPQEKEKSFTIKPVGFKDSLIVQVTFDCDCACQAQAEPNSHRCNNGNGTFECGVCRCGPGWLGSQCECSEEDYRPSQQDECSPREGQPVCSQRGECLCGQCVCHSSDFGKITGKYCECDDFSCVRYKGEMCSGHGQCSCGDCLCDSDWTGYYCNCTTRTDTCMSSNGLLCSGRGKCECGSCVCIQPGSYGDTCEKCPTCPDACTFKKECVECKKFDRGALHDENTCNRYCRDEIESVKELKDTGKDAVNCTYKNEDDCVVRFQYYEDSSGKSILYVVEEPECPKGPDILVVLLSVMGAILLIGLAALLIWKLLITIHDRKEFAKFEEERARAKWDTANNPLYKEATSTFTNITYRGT
Sequence of Integrin alpha-IIb/beta-3 (P08514 32-887 limits assumed): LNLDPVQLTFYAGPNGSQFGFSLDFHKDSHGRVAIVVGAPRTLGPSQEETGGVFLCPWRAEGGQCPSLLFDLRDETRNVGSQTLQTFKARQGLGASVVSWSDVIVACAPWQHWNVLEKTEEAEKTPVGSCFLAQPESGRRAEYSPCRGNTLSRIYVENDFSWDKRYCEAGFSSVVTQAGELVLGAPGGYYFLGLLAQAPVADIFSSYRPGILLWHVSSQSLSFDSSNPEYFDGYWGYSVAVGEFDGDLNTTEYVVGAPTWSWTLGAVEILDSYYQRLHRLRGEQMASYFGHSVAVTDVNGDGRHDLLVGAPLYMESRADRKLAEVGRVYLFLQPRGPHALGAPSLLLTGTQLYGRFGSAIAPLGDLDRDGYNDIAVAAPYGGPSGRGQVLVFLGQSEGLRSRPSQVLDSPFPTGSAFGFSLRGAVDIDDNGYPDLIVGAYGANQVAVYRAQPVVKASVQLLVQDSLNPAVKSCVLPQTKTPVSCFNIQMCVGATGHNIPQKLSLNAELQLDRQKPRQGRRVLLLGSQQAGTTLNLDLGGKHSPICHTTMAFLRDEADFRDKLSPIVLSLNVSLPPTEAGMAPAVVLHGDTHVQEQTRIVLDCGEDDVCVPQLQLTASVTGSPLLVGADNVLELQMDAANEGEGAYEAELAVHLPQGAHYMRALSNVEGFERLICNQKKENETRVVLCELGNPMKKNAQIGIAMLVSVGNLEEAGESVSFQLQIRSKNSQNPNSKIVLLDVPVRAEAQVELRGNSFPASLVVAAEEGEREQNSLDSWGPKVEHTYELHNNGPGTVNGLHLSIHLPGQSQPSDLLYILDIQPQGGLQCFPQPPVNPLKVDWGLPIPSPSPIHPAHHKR
Sequence of Integrin alpha-IIb/beta-3 (P08514 891-1039 limits assumed): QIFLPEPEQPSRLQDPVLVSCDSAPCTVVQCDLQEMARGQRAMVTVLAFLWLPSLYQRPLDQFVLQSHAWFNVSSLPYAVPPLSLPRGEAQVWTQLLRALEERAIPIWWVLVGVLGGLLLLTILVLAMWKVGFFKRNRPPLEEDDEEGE

Row | SMILES | IC50 [1] | IC50 [2]
1 | N=C(N)c1ccc2[nH]cc(C(=O)NCCCCCCC(=O)O)c2c1 | > 100 µM | > 100 µM
2 | N=C(N)c1ccc2c(C(=O)NCCCCCCC(=O)O)c[nH]c2c1 | 0.1 µM | 0.65 µM
3 | N=C(N)c1ccc(NCC(=O)NCCCCCCC(=O)O)cc1 | – | 67 µM
4 | N=C(N)c1ccc2[nH]c(C(=O)NCCCCCCC(=O)O)cc2c1 | – | 2.7 µM
5 | N=C(N)c1ccc2[nH]c(C(=O)NCCCCCC(=O)O)cc2c1 | 30 µM | > 100 µM
6 | N=C(N)c1ccc2[nH]c(C(=O)NCCCCCCCC(=O)O)cc2c1 | – | > 100 µM

Results, then the molecule that gave them:

Row | IC50 [1] | IC50 [2] | SMILES
7 | 64 µM | > 100 µM | N=C(N)c1cccc(NCC(=O)NCCCCCCC(=O)O)c1
8 | 0.15 µM | 1.3 µM | N=C(N)c1ccc2cc(C(=O)NCCCCCCC(=O)O)[nH]c2c1
9 | > 100 µM | > 100 µM | N=C(N)c1ccc2[nH]cc(C(=O)NCCCCCCCC(=O)O)c2c1
10 | 0.12 µM | 0.28 µM | CC(C)(S)[C@H](NC(=O)[C@H](CCCN=C(N)N)NC(=O)[C@H](Cc1c[nH]c2ccccc12)NC(=O)[C@H](CC(=O)O)NC(=O)CNC(=O)[C@H](CCCN=C(N)N)NC(=O)CCS)C(N)=O ([Mpa]RGDWR[Pen]-NH2)
